The experiment has as its target HPK1 (MAP4K1) (Homo sapiens, UniProt Q92918). Briefly: FRET Assay for HPK1 (MAP4K1): one step binding assay, displacement of labeled tracer. The settings on record: for inhibition at 1 µM: 1 μM compound; for inhibition at 1 µM / inhibition at 10 µM: FRET ratio 665/620, percent of control; for inhibition at 10 µM: 10 μM compound; for IC50: dose response curve, nonlinear regression. In short, it runs like this: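 Percent inhibition at 1.0 and 10.0 μM and IC50 by nonlinear regression were derived from loss of FRET signal versus control. The signal runs from Eu-anti-GST antibody (4 nM) bound to 10 nM HPK1 kinase to Alexa Fluor 647 Kinase Tracer 222 (20 nM), added after a 15-min on-ice compound pre-incubation. Binding then proceeded 1 h at room temperature in HEPES pH 7.5 buffer with 10 mM MgCl2, 1 mM EGTA, 0.01% Brij-35 and 3% DMSO.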

The inhibition is the change of the read-out against control, counted positive when it falls. The term IC50 denotes the midpoint of a concentration-inhibition curve. Read a high IC50 as lower potency.

Counter-ions that a name gives are not always drawn.

HPK1 (MAP4K1), sequence (Q92918 whole entry): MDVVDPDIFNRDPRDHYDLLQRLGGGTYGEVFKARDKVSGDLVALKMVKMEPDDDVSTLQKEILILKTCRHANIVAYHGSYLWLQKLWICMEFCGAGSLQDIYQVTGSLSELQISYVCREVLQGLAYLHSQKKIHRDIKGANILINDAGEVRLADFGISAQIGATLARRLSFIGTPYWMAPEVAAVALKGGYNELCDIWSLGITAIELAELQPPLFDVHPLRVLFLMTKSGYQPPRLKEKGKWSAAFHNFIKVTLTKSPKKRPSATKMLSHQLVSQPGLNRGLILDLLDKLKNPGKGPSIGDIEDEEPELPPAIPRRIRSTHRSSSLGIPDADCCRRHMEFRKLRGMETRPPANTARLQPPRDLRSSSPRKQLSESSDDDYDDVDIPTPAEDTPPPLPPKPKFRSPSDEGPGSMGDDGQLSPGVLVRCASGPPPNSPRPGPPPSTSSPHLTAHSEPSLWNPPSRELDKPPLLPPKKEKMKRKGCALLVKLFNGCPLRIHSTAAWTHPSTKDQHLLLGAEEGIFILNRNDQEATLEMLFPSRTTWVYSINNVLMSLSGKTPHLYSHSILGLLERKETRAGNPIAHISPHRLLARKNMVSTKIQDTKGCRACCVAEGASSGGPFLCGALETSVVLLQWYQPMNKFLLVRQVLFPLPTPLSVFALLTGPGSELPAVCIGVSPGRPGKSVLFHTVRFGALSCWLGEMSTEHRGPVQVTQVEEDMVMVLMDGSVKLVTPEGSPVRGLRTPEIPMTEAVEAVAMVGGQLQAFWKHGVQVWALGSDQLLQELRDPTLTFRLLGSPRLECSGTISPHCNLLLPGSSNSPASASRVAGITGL

With `CC(=O)N1CCN(c2ccc(N/C(C)=C3\C(=O)Nc4cnc(-c5cnccc5C)cc43)cn2)CC1` [Example 70, (Z)-3-(1-((6-(4-Acetylpiperazin-1-yl)pyridin-3-yl)amino)ethylidene)-5-(4-methylpyridin-3-yl)-1H-pyrrolo[2,3-c]pyridin-2(3H)-one], the inhibition at 1 µM is 69.5% and the inhibition at 10 µM amounted to 69.9%.
Regarding `COc1cccc(F)c1-c1cc2c(cc1C#N)NC(=O)/C2=C(/C)Nc1cnn(C)c1` [Example 71, (Z)-5-(2-Fluoro-6-methoxyphenyl)-3-(1-((1-methyl-1H-pyrazol-4-yl)amino)ethylidene)-2-oxoindoline-6-carbonitrile], the inhibition at 1 µM is 71.7%, the inhibition at 10 µM is 72.7% and the IC50 is under 50 nM.
In the case of `COc1cccc(F)c1-c1cc2c(cn1)NC(=O)/C2=C(/C)NC1CCNCC1` [Example 72, (Z)-5-(2-Fluoro-6-methoxyphenyl)-3-(1-(piperidin-4-ylamino)ethylidene)-1H-pyrrolo[2,3-c]pyridin-2(3H)-one trihydrochloride], the inhibition at 1 µM was found to be 39.8% and the inhibition at 10 µM is 68.6%.
Turning to `CCn1ccc(N/C(C)=C2\C(=O)Nc3cnc(-c4cnccc4C)cc32)n1` [Example 73, (Z)-3-(1-((1-Ethyl-1H-pyrazol-3-yl)amino)ethylidene)-5-(4-methylpyridin-3-yl)-1H-pyrrolo[2,3-c]pyridin-2(3H)-one], the inhibition at 1 µM turned out to be 69.6%, the inhibition at 10 µM is 63.9% and the IC50 was under 50 nM.
Consider `C/C(Nc1ccc(N2CCNCC2)cn1)=C1/C(=O)Nc2cnc(-c3cnccc3C)cc21` [Example 74, (Z)-5-(4-Methylpyridin-3-yl)-3-(1-((5-(piperazin-1-yl)pyridin-2-yl)amino)ethylidene)-1H-pyrrolo[2,3-c]pyridin-2(3H)-one], for which the inhibition at 1 µM is 76.3% and the IC50 is under 50 nM.
As to `CNC(=O)c1cc(N/C(C)=C2\C(=O)Nc3cnc(-c4cnccc4C)cc32)nn1C` [Example 75, (Z)-N,1-Dimethyl-3-((1-(5-(4-methylpyridin-3-yl)-2-oxo-1H-pyrrolo[2,3-c]pyridin-3(2H)-ylidene)ethyl)amino)-1H-pyrazole-5-carboxamide], the inhibition at 1 µM was found to be 71%, the inhibition at 10 µM turned out to be 74% and the IC50 is under 50 nM.
On the same counts, the results for `C/C(Nc1ccn(C2COC2)n1)=C1/C(=O)Nc2cnc(-c3cnccc3C)cc21` [Example 76, (Z)-5-(4-Methylpyridin-3-yl)-3-(1-((1-(oxctan-3-yl)-1H-pyrazol-3-yl)amino)ethylidene)-1H-pyrrolo[2,3-c]pyridin-2(3H)-one] are 70.3%, 69% and under 50 nM.
On the same counts, the results for `C/C(Nc1ccc(N2CCN(C3COC3)CC2)nc1)=C1/C(=O)Nc2cnc(-c3cnccc3C)cc21` [Example 77, (Z)-5-(4-Methylpyridin-3-yl)-3-(1-((6-(4-(oxetan-3-yl)piperazin-1-yl)pyridin-3-yl)amino)ethylidene)-1H-pyrrolo[2,3-c]pyridin-2(3H)-one] are 73%, 80.3% and under 50 nM.
On the same counts, the results for `C/C(Nc1cnn(CC(C)(C)O)c1)=C1/C(=O)Nc2cnc(-c3cnccc3C)cc21` [Example 78, (Z)-3-(1-((1-(2-Hydroxy-2-methylpropyl)-1H-pyrazol-4-yl)amino)ethylidene)-5-(4-methylpyridin-3-yl)-1H-pyrrolo[2,3-c]pyridin-2(3H)-one] are 84.2%, 83.1% and under 50 nM.
For the compound `CCS(=O)(=O)n1cc(N/C(C)=C2\C(=O)Nc3cnc(-c4cnccc4C)cc32)cn1` [Example 80, (Z)-3-(1-((1-(Ethylsulfonyl)-1H-pyrazol-4-yl)amino)ethylidene)-5-(4-methylpyridin-3-yl)-1H-pyrrolo[2,3-c]pyridin-2(3H)-one], the inhibition at 1 µM turned out to be 75.1%, the inhibition at 10 µM stood at 78% and the IC50 was under 50 nM.
On the same counts, the results for `C/C(Nc1ccn(C(F)F)n1)=C1/C(=O)Nc2cnc(-c3cnccc3C)cc21` [Example 81, (Z)-3-(1-((1-(Difluoromethyl)-1H-pyrazol-3-yl)amino)ethylidene)-5-(4-methylpyridin-3-yl)-1H-pyrrolo[2,3-c]pyridin-2(3H)-one] are 73.8%, 82.2% and under 50 nM.
On the same counts, the results for `COc1cccc(F)c1-c1cc2c(cn1)NC(=O)/C2=C(/C)Nc1cnn(C(C)(C)C#N)c1` [Example 82, (Z)-2-(4-((1-(5-(2-Fluoro-6-methoxyphenyl)-2-oxo-1H-pyrrolo[2,3-c]pyridin-3(2H)-ylidene)ethyl)amino)-1H-pyrazol-1-yl)-2-methylpropanenitrile] are 70.6%, 79.9% and under 50 nM.
As to `C/C(Nc1ccn(C2CCOCC2)n1)=C1/C(=O)Nc2cnc(-c3cnccc3C)cc21` [Example 83, (Z)-5-(4-Methylpyridin-3-yl)-3-(1-((1-(tetrahydro-2H-pyran-4-yl)-1H-pyrazol-3-yl)amino)ethylidene)-1H-pyrrolo[2,3-c]pyridin-2(3H)-one], the inhibition at 1 µM was 27.7% and the inhibition at 10 µM came out at 43.5%.
Take `C/C(Nc1ccc(OC2CCNCC2)nc1)=C1/C(=O)Nc2cnc(-c3cnccc3C)cc21` [Example 84, (Z)-5-(4-Methylpyridin-3-yl)-3-(1-((6-(piperidin-4-yloxy)pyridin-3-yl)amino)ethylidene)-1H-pyrrolo[2,3-c]pyridin-2(3H)-one]: the inhibition at 1 µM turned out to be 75.2%, the inhibition at 10 µM turned out to be 70.4% and the IC50 was under 50 nM.
For `C/C(Nc1cnn(C)c1)=C1/C(=O)Nc2cnc(-c3cncc4c3OCC(=O)N4)cc21` [Example 85, (Z)-8-(3-(1-((1-Methyl-1H-pyrazol-4-yl)amino)ethylidene)-2-oxo-2,3-dihydro-1H-pyrrolo[2,3-c]pyridin-5-yl)-2H-pyrido[4,3-b][1,4]oxazin-3(4H)-one], the inhibition at 1 µM came out at 78.2% and the IC50 was under 50 nM.
As for `C/C(NCCN1CCOCC1)=C1/C(=O)Nc2cnc(-c3cnccc3C)cc21` [Example 86, (Z)-5-(4-Methylpyridin-3-yl)-3-(1-((2-morpholinoethyl)amino)ethylidene)-1H-pyrrolo[2,3-c]pyridin-2(3H)-one], the inhibition at 1 µM turned out to be 51.5%, the inhibition at 10 µM was found to be 74% and the IC50 is over 500 nM.
On the same counts, the results for `C/C(Nc1cnn(CCN2CCOCC2)c1)=C1/C(=O)Nc2cnc(-c3cnccc3C)cc21` [Example 87, (Z)-5-(4-Methylpyridin-3-yl)-3-(1-((1-(2-morpholinoethyl)-1H-pyrazol-4-yl)amino)ethylidene)-1H-pyrrolo[2,3-c]pyridin-2(3H)-one] are 83.6%, 84.8% and under 50 nM.
On the same counts, the results for `C/C(Nc1cnn(C(C)(C)C#N)c1)=C1/C(=O)Nc2cnc(-c3c(C)noc3C)cc21` [Example 88, (Z)-2-(4-((1-(5-(3,5-Dimethylisoxazol-4-yl)-2-oxo-1H-pyrrolo[2,3-c]pyridin-3(2H)-ylidene)ethyl)amino)-1H-pyrazol-1-yl)-2-methylpropanenitrile] are 74.3%, 87.6% and 100 to 500 nM.
On the same counts, the results for `C/C(Nc1cnn(C(C)C)c1)=C1/C(=O)Nc2cnc(-c3cnccc3C)cc21` [Example 89, (Z)-3-(1-((1-Isopropyl-1H-pyrazol-4-yl)amino)ethylidene)-5-(4-methylpyridin-3-yl)-1H-pyrrolo[2,3-c]pyridin-2(3H)-one] are 77.3%, 76% and under 50 nM.
In the case of `CC(=O)N1CCC(n2cc(N/C(C)=C3\C(=O)Nc4cnc(-c5cnccc5C)cc43)cn2)CC1` [Example 90, (Z)-3-(1-((1-(1-Acetylpiperidin-4-yl)-1H-pyrazol-4-yl)amino)ethylidene)-5-(4-methylpyridin-3-yl)-1H-pyrrolo[2,3-c]pyridin-2(3H)-one], the inhibition at 1 µM worked out at 72.7%, the inhibition at 10 µM came to 75.6% and the IC50 was under 50 nM.
`CC/C(Nc1cnn(C(C)(C)C#N)c1)=C1/C(=O)Nc2cnc(-c3cnccc3C)cc21` [Example 91, (Z)-2-Methyl-2-(4-((1-(5-(4-methylpyridin-3-yl)-2-oxo-1H-pyrrolo[2,3-c]pyridin-3(2H)-ylidene)propyl)amino)-1H-pyrazol-1-yl)propanenitrile]: the inhibition at 1 µM was 79.7% and the IC50 was under 50 nM.
On to `CC/C(Nc1ccn(C(C)(C)C#N)n1)=C1/C(=O)Nc2cnc(-c3cnccc3C)cc21` [Example 92, (Z)-2-Methyl-2-(3-((1-(5-(4-methylpyridin-3-yl)-2-oxo-1H-pyrrolo[2,3-c]pyridin-3(2H)-ylidene)propyl)amino)-1H-pyrazol-1-yl)propanenitrile], for which the inhibition at 1 µM was 77%, the inhibition at 10 µM came out at 80.3% and the IC50 was under 50 nM.
On the same counts, the results for `COc1cccc(F)c1-c1cc2c(cn1)NC(=O)/C2=C(/C)Nc1ccn(C(C)(C)C#N)n1` [Example 93, (Z)-2-(3-((1-(5-(2-Fluoro-6-methoxyphenyl)-2-oxo-1H-pyrrolo[2,3-c]pyridin-3(2H)-ylidene)ethyl)amino)-1H-pyrazol-1-yl)-2-methylpropanenitrile] are 73.8%, 76.4% and under 50 nM.

The values are drawn from patent US20230009626A1 (ICHNOS SCIENCES S.A., priority 2018, published 2023).
